Assay results: article PMC9069370, “Integrated Design of a Membrane‐Lytic Peptide‐Based Intravenous Nanotherapeutic Suppresses Triple‐Negative Breast Cancer” (Advanced Science, 2022)
Read-outs that look alike come from different tables or passages of the source. Peptide text beside a SMILES is read from it.

Legend:
[1] = test system: HMLER‐shEcad tumorspheres; test: cells; format: cell-based, human
[2] = test system: HEK293T; test: cells; format: cell-based, human
[3] = test system: MCF‐10A; test: cells; format: cell-based, human
Excerpt: (§1) […], and MCF-10A cells were maintained in MEGM with supplements and growth factors bovine pituitary extract, hydrocortisone, human epidermal growth factor, insulin, and gentamicin/amphotericin-B.

[4] = test system: HMLER‐shEcad; test: cells; format: cell-based, human
Excerpt: as §1

[5] = test system: HMLER; test: cells; format: cell-based, human
Excerpt: as §1

[6] = test system: MCF‐10A mammospheres; test: Mammosphere viability assay (TOX8); format: cell-based, human
[7] = ANTS/DPX liposome leakage assay; details: for Peptide Concentration-induced 50 % ANTS/DPX leakage at pH 4.8 (L/P), 3POPC/1POPG Vesicle / Peptide Concentration-induced 50 % ANTS/DPX leakage at pH 4.8 (L/P), POPC Vesicle / Peptide Concentration-induced 50 % ANTS/DPX leakage at pH 7.4 (L/P), 3POPC/1POPG Vesicle / Peptide Concentration-induced 50 % ANTS/DPX leakage at pH 7.4 (L/P), POPC Vesicle: 0.5 mM vesicles, peptide 0-20 µM, 3 h incubation, lipid per peptide; for Peptide Concentration-induced 50 % ANTS/DPX leakage at pH 4.8 (L/P), 3POPC/1POPG Vesicle / Peptide Concentration-induced 50 % ANTS/DPX leakage at pH 4.8 (L/P), POPC Vesicle: HCl-adjusted PBS 1X pH 4.8; for Peptide Concentration-induced 50 % ANTS/DPX leakage at pH 7.4 (L/P), 3POPC/1POPG Vesicle / Peptide Concentration-induced 50 % ANTS/DPX leakage at pH 7.4 (L/P), POPC Vesicle: PBS 1X pH 7.4, high ratio = more potent; for change of ANTS/DPX dye leakage / liposome selectivity at pH 4.8: pH = 4.8 compared with physiological pH, anionic versus neutral liposomes
In short: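 The value is the lipid-to-peptide ratio giving 50% ANTS/DPX release, with fluorescence (350/510 nm) read after 3 h and scaled to 10% Triton as full leakage. Peptides were titrated into 0.5 mM LUVs of POPC or 3POPC/1POPG (0.1 µm, free dye removed by gel filtration) in PBS at pH 7.4 or 4.8.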

[8] = Tryptophan fluorescent binding assay; details: tryptophan fluorescence; 50 µM peptide, lipid titrated 0-5000 µM; phosphate buffered saline 1X, pH 7.4; values as lipid per peptide
In short: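 Peptides at 50 µM were incubated for 1 h with increasing amounts of 3:1 POPC:POPG unilamellar vesicles in 1X phosphate buffered saline, pH 7.4. Tryptophan emission (300–450 nm, excitation 280 nm) was recorded on a Cytation 5 multi-mode reader. The lipid concentration giving 50 % peptide binding was determined and reported as a lipid-to-peptide ratio.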

[9] = test system: U2OS; format: cell-based, human; details: 72 h

Row | SMILES | Peptide Concentration-induced 50 % ANTS/DPX leakage at pH 4.8 (L/P), 3POPC/1POPG Vesicle [7] [L/P] | Peptide Concentration-induced 50 % ANTS/DPX leakage at pH 4.8 (L/P), POPC Vesicle [7] [L/P] | Peptide Concentration-induced 50 % ANTS/DPX leakage at pH 7.4 (L/P), 3POPC/1POPG Vesicle [7] [L/P] | Peptide Concentration-induced 50 % ANTS/DPX leakage at pH 7.4 (L/P), POPC Vesicle [7] [L/P] | change of ANTS/DPX dye leakage / liposome selectivity at pH 4.8 [7] | Lipid Concentration-induced 50% Peptide Binding (L/P), 3POPC/1POPG Vesicle [8] [L/P] | Lipid Concentration-induced 50% Peptide Binding (L/P), POPC Vesicle [8] [L/P] | IC50 ([2]; 72 h) [µM] | IC50 ([4]; 72 h) [µM] | IC50 [9] [µM] | IC50 ([3]; 72 h) [µM] | IC50 ([5]; 72 h) [µM] | also measured
1 | CC[C@@H](C(=O)[C@@H](C)[C@@H](O)[C@H](C)[C@@H]1O[C@@H]([C@@H](CC)C(=O)O)CC[C@@H]1C)[C@H]1O[C@]2(C=C[C@@H](O)[C@]3(CC[C@@](C)([C@H]4CC[C@](O)(CC)[C@H](C)O4)O3)O2)[C@H](C)C[C@@H]1C [Salinomycin, salinomycin, reference compound] |  |  |  |  |  |  |  |  |  |  |  |  | IC50 ([1]; Homo sapiens, 120 h, read-out: IC50 against HMLER‐shEcad tumorspheres): 22 ± 5 µM; IC90 ([1]; Homo sapiens, read-out: IC90 against HMLER‐shEcad tumorspheres): 44 ± 17 µM; IC50 ([2]; Homo sapiens, HEK-293T, 72 h, read-out: IC50 (µM) HEK293T, non-cancerous cells, 2D culture, MTT, 72 h incubation, library peptides n = 2, D-enantiomers and small molecules replicated six times): 0.41 ± 0.1 µM; IC50 ([2]; Homo sapiens, HEK-293T, read-out: IC50 of salinomycin co‐administered with DHK, HEK293T, with […] DHK): 0.1 µM; IC50 ([2]; read-out: IC50 (µM) HEK293T, non-cancerous cells, 2D culture, MTT, 72 h incubation, library peptides n = 2, D-enantiomers and small molecules replicated six times): 0.4 ± 0.1 µM; IC50 ([3]; Homo sapiens, MCF-10A, 72 h, read-out: IC50 (µM) MCF-10A, non-cancerous cells, 2D culture, MTT, 72 h incubation, library peptides n = 2, D-enantiomers and small molecules replicated six times): 9.76 ± 2.28 µM; IC50 ([3]; Homo sapiens, MCF-10A, read-out: IC50 of salinomycin co‐administered with DHK, MCF‐10A, with […] DHK): 1.7 µM; IC50 ([3]; read-out: IC50 (µM) MCF-10A, non-cancerous cells, 2D culture, MTT, 72 h incubation, library peptides n = 2, D-enantiomers and small molecules replicated six times): 9.7 ± 2.3 µM; IC50 ([4]; Homo sapiens, 72 h, read-out: IC50 (µM) HMLER-shEcad, 2D culture, MTT, 72 h incubation, library peptides average of two independent experiments (n = 2), D-enantiomers and small molecules replicated six times): 0.92 ± 0.28 µM; IC50 ([4]; Homo sapiens, read-out: IC50 of salinomycin co‐administered with DHK, HMLER‐shEcad, with […] DHK): 0.03 µM; IC50 ([4]; read-out: IC50 (µM) HMLER-shEcad, 2D culture, MTT, 72 h incubation, library peptides average of two independent experiments (n = 2), D-enantiomers and small molecules replicated six times): 0.9 ± 0.3 µM; IC50 ([5]; Homo sapiens, 72 h, read-out: IC50 (µM) HMLER, 2D culture, MTT, 72 h incubation, library peptides average of two independent experiments (n = 2), D-enantiomers and small molecules replicated six times): 0.37 ± 0.08 µM; IC50 ([5]; Homo sapiens, read-out: IC50 of salinomycin co‐administered with DHK, HMLER, with […] DHK): 0.05 µM; increase in anticancer efficiency ([5]; addition of 5 µM DHK): 100 fold; IC50 ([5]; read-out: IC50 (µM) HMLER, 2D culture, MTT, 72 h incubation, library peptides average of two independent experiments (n = 2), D-enantiomers and small molecules replicated six times): 0.4 ± 0.1 µM; cancer cell viability ([5]; with 5 µM DHK, at the lowest dose of salinomycin): < 1%; factor by which the dosage of salinomycin required to kill cells is reduced ([5]; with […] DHK, both HMLER and HMLER‐shEcad): 8–27; IC90 against MCF‐10A mammospheres [6]: 34 ± 20 µM
2 | CC(C)C[C@H](NC(=O)CN)C(=O)N[C@@H](CC(C)C)C(=O)N[C@@H](CC(=O)O)C(=O)N[C@@H](CC(C)C)C(=O)N[C@@H](CC(C)C)C(=O)N[C@@H](CCC(=O)O)C(=O)N[C@@H](CC(C)C)C(=O)N[C@@H](CC(C)C)C(=O)N[C@@H](CC(C)C)C(=O)N[C@@H](CCCCN)C(=O)N[C@@H](C)C(=O)N[C@@H](C)C(=O)NCC(=O)N[C@@H](Cc1c[nH]c2ccccc12)C(N)=O [DEK] (H-GLLDLLELLLKAAGW-NH2) | 469 | 10 | 773 | 747 | significantly increased dye leakage from anionic liposomes | 1.67 | 1.50 | 6.8 ± 0.85 | 0.7 ± 0.07 | 19.9 ± 2.65 |  |  | IC50 ([1]; 16 h): 12 ± 2 µM; IC90 ([1]; 16 h): 22 ± 2 µM
3 | CC(C)C[C@H](NC(=O)CN)C(=O)N[C@@H](CC(C)C)C(=O)N[C@@H](Cc1c[nH]cn1)C(=O)N[C@@H](CC(C)C)C(=O)N[C@@H](CC(C)C)C(=O)N[C@@H](Cc1c[nH]cn1)C(=O)N[C@@H](CC(C)C)C(=O)N[C@@H](CC(C)C)C(=O)N[C@@H](CC(C)C)C(=O)N[C@@H](Cc1c[nH]cn1)C(=O)N[C@@H](C)C(=O)N[C@@H](C)C(=O)NCC(=O)N[C@@H](Cc1c[nH]c2ccccc12)C(N)=O [HHH] (H-GLLHLLHLLLHAAGW-NH2) | 50 | 173 | 469 | 1133 |  | 0.82 | 0.46 | 30.6 ± 4.81 | 9.5 ± 0.99 | 185 ± 7 | 79 ± 11.3 | 21.1 ± 6.93 | 
4 | CC(C)C[C@H](NC(=O)CN)C(=O)N[C@@H](CC(C)C)C(=O)N[C@@H](CCCCN)C(=O)N[C@@H](CC(C)C)C(=O)N[C@@H](CC(C)C)C(=O)N[C@@H](Cc1c[nH]cn1)C(=O)N[C@@H](CC(C)C)C(=O)N[C@@H](CC(C)C)C(=O)N[C@@H](CC(C)C)C(=O)N[C@@H](CCC(=O)O)C(=O)N[C@@H](C)C(=O)N[C@@H](C)C(=O)NCC(=O)N[C@@H](Cc1c[nH]c2ccccc12)C(N)=O [KHE] (H-GLLKLLHLLLEAAGW-NH2) | 156 | 183 | 188 | 981 |  | 0.71 | 0.88 | 26 ± 2.83 | 2.92 ± 0.17 | 53 ± 2.83 | 20.9 ± 5.87 | 3.7 ± 0.14 | 
5 | CC(C)C[C@H](NC(=O)CN)C(=O)N[C@@H](CC(C)C)C(=O)N[C@@H](Cc1c[nH]cn1)C(=O)N[C@@H](CC(C)C)C(=O)N[C@@H](CC(C)C)C(=O)N[C@@H](CCC(=O)O)C(=O)N[C@@H](CC(C)C)C(=O)N[C@@H](CC(C)C)C(=O)N[C@@H](CC(C)C)C(=O)N[C@@H](Cc1c[nH]cn1)C(=O)N[C@@H](C)C(=O)N[C@@H](C)C(=O)NCC(=O)N[C@@H](Cc1c[nH]c2ccccc12)C(N)=O [HEH] (H-GLLHLLELLLHAAGW-NH2) | 24 | 173 | 505 | 995 | increased selectivity for neutral bilayers | 3.50 | 0.88 | 8.8 ± 1.7 | 11 ± 1.06 | 106 ± 14 | > 200 | 28.6 ± 10.8 | 
6 | CC(C)C[C@H](NC(=O)CN)C(=O)N[C@@H](CC(C)C)C(=O)N[C@@H](CCCCN)C(=O)N[C@@H](CC(C)C)C(=O)N[C@@H](CC(C)C)C(=O)N[C@@H](CCCCN)C(=O)N[C@@H](CC(C)C)C(=O)N[C@@H](CC(C)C)C(=O)N[C@@H](CC(C)C)C(=O)N[C@@H](CCCCN)C(=O)N[C@@H](C)C(=O)N[C@@H](C)C(=O)NCC(=O)N[C@@H](Cc1c[nH]c2ccccc12)C(N)=O [KKK] (H-GLLKLLKLLLKAAGW-NH2) | 81 | 156 | 115 | 1369 |  | 1.70 | 1.25 | 3.7 ± 0.14 | 1.35 ± 0.4 | 9.65 ± 1.2 | 1.37 ± 0.24 | 1.57 ± 0.24 | 
